In patent US20260116868A1 (Arcus Biosciences, Inc., priority 2023, published 2026):
pEC50, pIC50: −log10 of the molar value.

Tested on: Jurkat cells
Experiment: IL-2 secretion assay in Jurkat cells activated with CD3/CD28 T Cell Activator
Type: cell-based
Conditions: Homo sapiens; Jurkat cells, CD3/CD28 T Cell Activator, 24 h, IL-2 AlphaLISA; read-out: IL-2 Secretion (EC50)
Protocol: Certain compounds were also evaluated in an IL-2 secretion assay. On the day of the assay, a 16 point, 1:2 master serial dilution of each compound was prepared in Opti-MEM to span a final concentration range of 10 μM to 300 pM. Assays were set up in CORNING® tissue culture-treated 384-well microplates containing 60 nL of each dilution. Jurkat cells grown in RPMI-1640 supplemented with 10% FBS, 1% Glutamax, and 1% Pen/Strep were collected, resuspended in Opti-MEM. 50,000 cells/well and added to the compound plates. After a short spin (1200 rpm for 1 min), the plates were incubated at 37° C. for 1 hour. The cells were activated by adding 15 μL of IMMUNOCULT™ Human CD3/CD28 T Cell Activator (STEMCELL Technologies) diluted in Opti-MEM. After 24 h of incubation at 37° C., aliquots of culture supernatants were transferred to OptiPlate-384 (PerkinElmer) microplates. The level of IL-2 secretion in the supernatants was then determined using the IL-2 (human) AlphaLISA Detection Kit (PerkinElmer) according to the manufacturer's recommendations. The AlphaLISA signal was measured using an EnVision plate reader (PerkinElmer). EC50 values were determined by fitting the data to a standard 4-parameter logistic equation. See Table 7 for data for select compounds (IL-2 Secretion (EC50)).

SMILES | pEC50
CC1CC(c2cccc(NC(=O)c3cc(CN4CCC[C@H](C)C4)cn(C4CC4)c3=O)c2)(c2nncn2C)C1 (mixture of isomers) [Example 76, 1-cyclopropyl-N-[3-[3-methyl-1-(4-methyl-1,2,4-triazol-3-yl)cyclobutyl]phenyl]-5-[[(3S)-3-methylpiperidin-1-yl]methyl]-2-oxopyridine-3-carboxamide] | > 7.00
CC1CC(c2cccc(NC(=O)c3cc(CN4CCC[C@H](C)C4)cn(CC4CC4)c3=O)c2)(c2nncn2C)C1 (mixture of isomers) [Example 78, 1-(cyclopropylmethyl)-N-[3-[3-methyl-1-(4-methyl-1,2,4-triazol-3-yl)cyclobutyl]phenyl]-5-[[(3S)-3-methylpiperidin-1-yl]methyl]-2-oxopyridine-3-carboxamide] | 6.00 to 7.00
C[C@@H]1CN(Cc2cc(C(=O)Nc3cc(-c4ccc(C#N)cc4-c4nccn4C)cc(C4CC4)n3)c(=O)n(C3CC3)c2)CCO1 (single isomer, unassigned) [Example 36] | 5.30 to 6.00
COCCNCc1cc(C(=O)Nc2cc(-c3ccc(F)cc3C(=O)N3CC(F)C3)cc(C3CC3)n2)c(=O)n(C2CC2)c1 [Example 67, N-(6-cyclopropyl-4-{4-fluoro-2-[(3-fluoro-1-azetidinyl)carbonyl]phenyl}-2-pyridyl)-1-cyclopropyl-5-[(2-methoxyethylamino)methyl]-2-oxo-1,2-dihydronicotinamide] | > 7.00
Cn1cc(CNC[C@@H]2CCCO2)cc(C(=O)Nc2cc(-c3ccc(OC(F)F)cc3C(=O)N3CC(F)(F)C3)cc(C3CC3)n2)c1=O [Example 88, N-[6-cyclopropyl-4-[2-(3,3-difluoroazetidine-1-carbonyl)-4-(difluoromethoxy)phenyl]pyridin-2-yl]-1-methyl-2-oxo-5-[[[(2S)-oxolan-2-yl]methylamino]methyl]pyridine-3-carboxamide] | > 7.00
N#Cc1ccc(-c2cc(NC(=O)c3cc(CNC[C@@H]4CCCO4)cn(CC(F)(F)F)c3=O)nc(C3CC3)c2)c(C(=O)N2CC(F)(F)C2)c1 [Example 93, N-[4-[4-cyano-2-(3,3-difluoroazetidine-1-carbonyl)phenyl]-6-cyclopropylpyridin-2-yl]-2-oxo-5-[[[(2S)-oxolan-2-yl]methylamino]methyl]-1-(2,2,2-trifluoroethyl)pyridine-3-carboxamide] | > 7.00

Now from value to molecule:

pEC50 | SMILES
> 7.00 | COCCNCc1cc(C(=O)Nc2cc(-c3ccc(F)cc3C(=O)N3CC(F)(F)C3)cc(C3CC3)n2)c(=O)n(C2CC2)c1 [Example 68, N-(6-cyclopropyl-4-{2-[(3,3-difluoro-1-azetidinyl)carbonyl]-4-fluorophenyl}-2-pyridyl)-1-cyclopropyl-5-[(2-methoxyethylamino)methyl]-2-oxo-1,2-dihydronicotinamide]
> 7.00 | CO[C@@H](C)CNCc1cc(C(=O)Nc2cc(-c3ccc(Cl)cc3C(=O)N3CC(F)(F)C3)cc(OCC(F)(F)F)n2)c(=O)n(C2CC2)c1 [Example 82]
> 7.00 | CO[C@@H](C)CNCc1cc(C(=O)Nc2cc(-c3ccc(Cl)cc3C(=O)N3CC(F)(F)C3)cc(OCC(F)F)n2)c(=O)n(C2CC2)c1 [Example 83]
> 7.00 | CC(C)CNCc1cc(C(=O)Nc2cc(-c3ccc(OC(F)F)cc3C(=O)N3CC(F)(F)C3)cc(C3CC3)n2)c(=O)n(C2CC2)c1 [Example 85, N-(6-cyclopropyl-4-{2-[(3,3-difluoro-1-azetidinyl)carbonyl]-4-difluoromethoxyphenyl}-2-pyridyl)-1-cyclopropyl-5-[(isobutylamino)methyl]-2-oxo-1,2-dihydronicotinamide]
< 5.30 | CO[C@@H](C)CNCc1cc(C(=O)Nc2cc(-c3ccc(OC(F)F)cc3C(=O)N3CC(F)(F)C3)cc(C3CC3)n2)c(=O)n(C)c1 [Example 87, N-[6-cyclopropyl-4-[2-(3,3-difluoroazetidine-1-carbonyl)-4-(difluoromethoxy)phenyl]pyridin-2-yl]-5-[[[(2S)-2-methoxypropyl]amino]methyl]-1-methyl-2-oxopyridine-3-carboxamide]
> 7.00 | CO[C@@H](C)CNCc1cc(C(=O)Nc2cc(-c3ccc(OC(F)F)cc3C(=O)N3CC(F)(F)C3)cc(C3CC3)n2)c(=O)n(C2CC2)c1 [Example 89, N-(6-cyclopropyl-4-{2-[(3,3-difluoro-1-azetidinyl)carbonyl]-4-difluoromethoxyphenyl}-2-pyridyl)-5-{[(S)-2-methoxypropylamino]methyl}-1-cyclopropyl-2-oxo-1,2-dihydronicotinamide]
> 7.00 | O=C(Nc1cc(-c2ccc(Cl)cc2C(=O)N2CC(F)(F)C2)cc(C2CC2)n1)c1cc(CNC[C@@H]2CCCO2)cn(C2CC2)c1=O [Example 90, N-(4-{4-chloro-2-[(3,3-difluoro-1-azetidinyl)carbonyl]phenyl}-6-cyclopropyl-2-pyridyl)-5-[({[(S)-tetrahydro-2-furyl]methyl}amino)methyl]-1-cyclopropyl-2-oxo-1,2-dihydronicotinamide]
> 7.00 | CCOc1cc(-c2ccc(Cl)cc2C(=O)N2CC(F)(F)C2)cc(NC(=O)c2cc(CNC[C@@H]3CCCO3)cn(C3CC3)c2=O)n1 [Example 91, N-(4-{4-chloro-2-[(3,3-difluoro-1-azetidinyl)carbonyl]phenyl}-6-ethoxy-2-pyridyl)-5-[({[(S)-tetrahydro-2-furyl]methyl}amino)methyl]-1-cyclopropyl-2-oxo-1,2-dihydronicotinamide]
> 7.00 | CC(C)Nc1cc(-c2ccc(Cl)cc2C(=O)N2CC(F)(F)C2)cc(NC(=O)c2cc(CNC[C@@H]3CCCO3)cn(C3CC3)c2=O)n1 [Example 92, N-(4-{4-chloro-2-[(3,3-difluoro-1-azetidinyl)carbonyl]phenyl}-6-(isopropylamino)-2-pyridyl)-5-[({[(S)-tetrahydro-2-furyl]methyl}amino)methyl]-1-cyclopropyl-2-oxo-1,2-dihydronicotinamide]

Biological target: T1, Cbl-b (Homo sapiens, UniProt Q13191)
T1 construct: biotin (biotinylated protein)
T1 sequence (Q13191 whole entry, species assumed): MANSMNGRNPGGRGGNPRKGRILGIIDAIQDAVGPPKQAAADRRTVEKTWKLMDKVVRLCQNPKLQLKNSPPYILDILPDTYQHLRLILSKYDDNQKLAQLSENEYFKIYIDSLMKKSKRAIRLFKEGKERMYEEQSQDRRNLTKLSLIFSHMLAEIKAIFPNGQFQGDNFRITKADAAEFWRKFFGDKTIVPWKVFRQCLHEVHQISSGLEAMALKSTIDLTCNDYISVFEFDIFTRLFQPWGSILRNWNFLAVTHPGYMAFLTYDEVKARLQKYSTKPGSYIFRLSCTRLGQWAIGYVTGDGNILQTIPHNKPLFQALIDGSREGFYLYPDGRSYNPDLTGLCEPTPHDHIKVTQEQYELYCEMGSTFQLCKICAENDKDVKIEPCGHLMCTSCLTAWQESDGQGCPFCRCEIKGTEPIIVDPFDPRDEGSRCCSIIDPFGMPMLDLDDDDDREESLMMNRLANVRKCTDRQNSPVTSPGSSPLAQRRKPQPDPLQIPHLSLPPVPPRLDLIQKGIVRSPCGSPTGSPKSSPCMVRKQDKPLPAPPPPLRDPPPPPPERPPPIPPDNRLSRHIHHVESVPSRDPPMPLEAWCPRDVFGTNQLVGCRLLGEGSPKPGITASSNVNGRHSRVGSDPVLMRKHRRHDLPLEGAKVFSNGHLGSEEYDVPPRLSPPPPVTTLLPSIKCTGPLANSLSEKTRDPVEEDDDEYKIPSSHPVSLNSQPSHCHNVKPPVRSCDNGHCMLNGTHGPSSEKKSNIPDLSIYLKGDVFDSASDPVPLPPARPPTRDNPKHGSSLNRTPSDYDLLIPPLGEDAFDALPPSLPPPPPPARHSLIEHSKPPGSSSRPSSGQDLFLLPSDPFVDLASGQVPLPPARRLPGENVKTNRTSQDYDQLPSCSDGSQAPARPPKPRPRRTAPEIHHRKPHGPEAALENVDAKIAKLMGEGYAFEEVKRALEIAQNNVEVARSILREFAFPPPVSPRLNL
Experiment: Cbl-b probe displacement HTRF binding assay
Conditions: 0.4 nM Cbl-b, 150 nM BODIPY probe
Method in brief: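 Binding IC50 from four-parameter fit of HTRF signal loss, normalised to DMSO (0%) and no-protein (100%) wells. Biotinylated Cbl-b 0.4 nM was preincubated 60 min with compound (20-point 1:2 dilution) before 15 min with 150 nM BODIPY probe; Tb-streptavidin detection.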

SMILES | pIC50
CC1CC(c2cccc(NC(=O)c3cc(CN4CCC[C@H](C)C4)cn(C4CC4)c3=O)c2)(c2nncn2C)C1 (mixture of isomers) [Example 76, 1-cyclopropyl-N-[3-[3-methyl-1-(4-methyl-1,2,4-triazol-3-yl)cyclobutyl]phenyl]-5-[[(3S)-3-methylpiperidin-1-yl]methyl]-2-oxopyridine-3-carboxamide] | > 7.00
CC1CC(c2cccc(NC(=O)c3cc(CN4CCC[C@H](C)C4)cn(CC4CC4)c3=O)c2)(c2nncn2C)C1 (mixture of isomers) [Example 78, 1-(cyclopropylmethyl)-N-[3-[3-methyl-1-(4-methyl-1,2,4-triazol-3-yl)cyclobutyl]phenyl]-5-[[(3S)-3-methylpiperidin-1-yl]methyl]-2-oxopyridine-3-carboxamide] | > 7.00
C[C@@H]1CN(Cc2cc(C(=O)Nc3cc(-c4ccc(C#N)cc4-c4nccn4C)cc(C4CC4)n3)c(=O)n(C3CC3)c2)CCO1 (single isomer, unassigned) [Example 36] | 6.00 to 7.00
N#Cc1ccc(-c2cc(NC(=O)c3cc(CNC4CCCC4)cn(C4CC4)c3=O)nc(C3CC3)c2)c(C(=O)N2CC(F)(F)C2)c1 [Example 397] | > 7.00
C[C@H]1CCCN(Cc2cc(C(=O)Nc3cc(-c4ccc(C#N)cc4C(=O)N4CC(F)(F)C4)cc(C4CC4)n3)c(=O)n(C3CC3)c2)C1 [Example 399] | > 7.00
N#Cc1ccc(-c2cc(NC(=O)c3cc(CNCC4(F)CCC4)cn(C4CC4)c3=O)nc(C3CC3)c2)c(C(=O)N2CC(F)(F)C2)c1 [Example 400] | > 7.00
CO[C@H]1CC[C@@H]1NCc1cc(C(=O)Nc2cc(-c3ccc(C#N)cc3C(=O)N3CC(F)(F)C3)cc(C3CC3)n2)c(=O)n(C2CC2)c1 [Example 402] | > 7.00
COCCNCc1cc(C(=O)Nc2cc(-c3ccc(F)cc3C(=O)N3CC(F)C3)cc(C3CC3)n2)c(=O)n(C2CC2)c1 [Example 404] | > 7.00
COCCNCc1cc(C(=O)Nc2cc(-c3c(Cl)cc(Cl)cc3C(=O)N3CC(F)(F)C3)cc(C3CC3)n2)c(=O)n(C2CC2)c1 [Example 405] | > 7.00
CC(C)Oc1cc(-c2ccc(C#N)cc2C(=O)N2CC(F)(F)C2)cc(NC(=O)c2cc(CNC[C@@H]3CCCCO3)cn(C)c2=O)n1 [Example 407] | > 7.00
N#Cc1ccc(-c2cc(NC(=O)c3cc(CN[C@H]4CCC[C@@H]4O)cn(C4CC4)c3=O)nc(C3CC3)c2)c(C(=O)N2CC(F)(F)C2)c1 [Example 409] | > 7.00
N#Cc1ccc(-c2cc(NC(=O)c3cc(CNC[C@@H]4CCOC4)cn(C4CC4)c3=O)nc(C3CC3)c2)c(C(=O)N2CC(F)(F)C2)c1 [Example 412] | > 7.00

Results, then the molecule that gave them:

pIC50 | SMILES
> 7.00 | CO[C@@H](C)CNCc1cc(C(=O)Nc2cc(-c3ccc(F)cc3C(=O)N3CC(F)(F)C3)cc(C3CC3)c2)c(=O)n(C2CC2)c1 [Example 396]
> 7.00 | O=C(Nc1cc(-c2ccc(Cl)cc2C(=O)N2CC(F)(F)C2)cc(C2CC2)n1)c1cc(CNC[C@@H]2CCCCO2)cn(C2CC2)c1=O [Example 398]
> 7.00 | COC(C)(C)CNCc1cc(C(=O)Nc2cc(-c3ccc(C#N)cc3C(=O)N3CC(F)(F)C3)cc(C3CC3)n2)c(=O)n(C2CC2)c1 [Example 401]
> 7.00 | COCCNCc1cc(C(=O)Nc2cc(-c3ccc(F)cc3C(=O)N3CC(F)(F)C3)cc(C3CC3)n2)c(=O)n(C2CC2)c1 [Example 403]
> 7.00 | O=C(Nc1cc(-c2ccc(Cl)cc2C(=O)N2CC(F)(F)C2)cc(C2CC2)n1)c1cc(CNCC2CC2)cn(C2CC2)c1=O [Example 406]
> 7.00 | CC1(CNCc2cc(C(=O)Nc3cc(-c4ccc(Cl)cc4C(=O)N4CC(F)(F)C4)cc(C4CC4)n3)c(=O)n(C3CC3)c2)CC1 [Example 408]
> 7.00 | CC(C)CCNCc1cc(C(=O)Nc2cc(-c3ccc(Cl)cc3C(=O)N3CC(F)(F)C3)cc(C3CC3)n2)c(=O)n(C2CC2)c1 [Example 410]
> 7.00 | CO[C@@H](C)CNCc1cc(C(=O)Nc2cc(-c3cc(Cl)c(Cl)cc3C(=O)N3CC(F)(F)C3)cc(C3CC3)n2)c(=O)n(C2CC2)c1 [Example 411]
